These results are taken from patent US20240285512A1, “ORAL CARE COMPOSITIONS” (Firmenich SA, priority 2021, published 2024).

Holding throughout (assay type): cell-based
Test [1] relates to mature biofilm of defined inocula (12 bacterial strains of Table 1). Put plainly: Biofilm disruption assay, defined inocula (7-day mature biofilm, SYTO 9 fluorescence). As to conditions: for inhibition at 0.01 % / inhibition at 10000 µM / inhibition at 0.1 %: read-out: Disruption Δ (difference in relative biofilm abundance between control base and treatment); for inhibition at 0.1 %: dosage 0.1%. As to the method:
(§1) A total of 12 bacterial strains were selected based on scientific literature. The strains were grown in media recommended by strain suppliers. Broth cultures were adjusted to log 7 CFU/mL with growth media containing 20% of glycerol. For C. matruchotii growth medium with glycerol was used to wash off the colonies culture plates, the cell suspension was then homogenized by vortexing with glass beads. The aerobic and anaerobic strains were mixed and aliquoted separately. The inocula were stored at −80° C. until use.
(§2) Saliva and oral inocula preparation. Saliva and oral microflora samples were collected from healthy volunteers by passive drooling using a method described previously. • (a) Bacteria Adhesion assay. Pegs of 96-well MBEC plate (Innovotech, Canada) were submerged in saliva for pellicle formation. Overnight culture of A. oris, A. naeslundii, S. mitis and S. oralis were normalized to OD=0.1 using 0.85% NaCl and mixed in equal proportions. The plates were treated with samples for 2 min and incubated with the culture mixture for 30 min at 37° C. and 5% CO2. The pegs on 96-well plates were then washed 3 times before harvest. • (b) Biofilm formation assay. Saliva-coated 96-well MBEC plates were incubated with inocula anaerobically overnight. The next day, the inoculum was replaced with modified BHI broth (BHI supplemented with 1 g/L mucin, 0.5 mg/L Vitamin K and 10 mg/L hemin). The devices were treated for 2 min twice to mimic the application of dental care products, after which the treatment solution was replaced with fresh modified BHI broth and incubation of the devices was continued. The biofilms were harvested after two days. • (c) Biofilm disruption assay. The inoculation and incubation was done in the same manner as described in the formation assay except that the incubation time was extended to 7 days, after which the mature biofilm was subjected to treatment twice a day as in the formation assay for 3 days before harvest.
(§3) Biofilm harvest. To harvest the attached cells, the peg of the MBEC device was immersed in 200 μL of saline solution per well. The plates were sonicated in an ultrasonic bath to obtain cell suspension. For the adhesion assay, the suspension was serially diluted and plated on Tryptic Soy Agar using Microlab STAR (Hamilton). For the formation and disruption assays, the suspension was used for SYTO 9 staining using LIVE/DEAD® BacLight Bacterial Viability Kits L7012 (Thermo Fisher Scientific) following manufacturer instructions.
(§4) The inventors used the assays described above to screen more ingredients for activity in a model mouth wash (Table 5).
(§5) The compounds and compositions for testing activities in Table 6 were dissolved in DMSO. The rest of the ingredients of mouth rinse in Table 5 were mixed to make a master mix in water and then aliquoted. The DMSO solution was then added to the master mix and homogenized.

For test [2], the system named is A. oris, A. naeslundii, S. mitis and S. oralis. Put plainly: Bacteria adhesion assay, defined inocula (MBEC pegs, saliva pellicle, CFU plating). The note with it: for inhibition at 0.01 % / inhibition at 10000 µM / inhibition at 0.1 %: relative CFU with base designated as 100, read-out: Adhesion Δ (difference in relative biofilm abundance between control base and treatment); for Adhesion Δ (difference in relative biofilm abundance between control base and treatment): relative CFU with base designated as 100. As to the method:
as §1, §2, §3, §4, §5

Test [3] concerns biofilm of defined inocula (12 bacterial strains of Table 1). Description: Biofilm formation assay, defined inocula (MBEC plates, SYTO 9 fluorescence). As to conditions: for inhibition at 0.01 % / inhibition at 10000 µM / inhibition at 0.1 %: read-out: Formation Δ (difference in relative biofilm abundance between control base and treatment); for inhibition at 0.1 %: dosage 0.1%. How it is done:
as §1, §2, §3, §4, §5

Setting [4] is: dosage 0.01%, defined inocula, relative fluorescence intensity with base designated as 100.
The mark [5] stands for this setting: dosage 10 mM in model mouth rinse with DMSO, defined inocula, relative fluorescence intensity with base designated as 100.
[6] abbreviates: dosage 10 mM in model mouth rinse with DMSO.
The mark [7] stands for this setting: defined inocula, relative fluorescence intensity with base designated as 100.

Like-named read-outs stand apart in the source and are kept apart here.

For `CCC=CCCOC(C)=O` [3-HEXENYL ACETATE, 3-hexenyl acetate], the inhibition at 0.01 % in test [1] (setting [4]) was found to be 64.7%; in test [2] (dosage 0.01%), 32.7%; in test [3] (setting [4]) it was 78.1%.

For the compound `CC=Cc1ccc(OC)cc1` [Anethole], the inhibition at 10000 µM came to 77.4% in test [1] (setting [5]), 17.4% in test [2] (setting [6]) and 53.4% in test [3] (setting [5]).

In the case of `CC(=O)/C=C/C1=C(C)CCCC1(C)C` [BETA IONONE, (3E)-4-(2,6,6-Trimethylcyclohex-1-en-1-yl)but-3-en-2-one], the inhibition at 0.01 % was 61.8% in test [1] (setting [4]), 19.4% in test [2] (dosage 0.01%) and 80.8% in test [3] (setting [4]).

For `O=CC=Cc1ccccc1` [Cinnamaldehyde], the figures for the inhibition at 0.1 % in test [1] (setting [7]), in test [2] (dosage 0.1%) and in test [3] (setting [7]) were 48.2%, -9.1% and 83.3%, respectively.

For the compound `CC(C)=CCCC(C)CCO` (centres unmarked) [Citronellol], the values for the inhibition at 10000 µM in test [1] (setting [5]), in test [2] (setting [6]) and in test [3] (setting [5]) were 67%, 91.7% and 58.1%, respectively.

In the case of `CCCCCCCCCC(=O)O` [Decanoic acid], the results for the inhibition at 10000 µM in test [1] (setting [5]) and in test [3] (setting [5]) were 89.8% and 93.3%, respectively.

On to `CC(C)=CCC/C(C)=C/CO` [GERANIOL, Geraniol], for which the figures for the inhibition at 0.01 % in test [1] (setting [4]), in test [2] (dosage 0.01%) and in test [3] (setting [4]) were 61.7%, 32.1% and 84.7%, respectively.

With `CC(C)CCO` [ISOAMYL ALCOHOL, Isoamyl alcohol], the figures for the inhibition at 0.1 % in test [1] (setting [7]), in test [2] (dosage 0.1%) and in test [3] (setting [7]) were 57.4%, 63.7% and 82.3%, respectively.

With `CCCCCC1C(=O)CCC1CC(=O)OC` (centres unmarked) [Methyl (2-pentyl-3-oxocyclopentyl) acetate], the “Disruption Δ (difference in relative biofilm abundance between control base and treatment)” value in test [1] (setting [4]) amounted to 63.2. Further, in test [2] (dosage 0.01%), the “Adhesion Δ (difference in relative biofilm abundance between control base and treatment)” value amounted to 37.1. Also, in test [3] (setting [4]), the “Formation Δ (difference in relative biofilm abundance between control base and treatment)” value came out at 86.3.

As for `CCCCCCCCCCCCCC(=O)O` [Myristic Acid, Myristic acid], the values for the inhibition at 10000 µM in test [1] (setting [5]), in test [2] (setting [6]) and in test [3] (setting [5]) were 87.9%, 33.3% and 64.9%, respectively.

Regarding `C=C(C)[C@@H]1CCC2=CC(=O)C[C@@H](C)[C@]2(C)C1` [Nootkatone], the inhibition at 10000 µM in test [1] (setting [5]) turned out to be 63.1%; in test [2] (setting [6]), 86.4%; in test [3] (setting [5]), 20.3%.

Turning to `CCCCC1CCC(=O)O1` (centres unmarked) [OCTALACTONE, Gamma octalactone], in test [1] (setting [4]), the “Disruption Δ (difference in relative biofilm abundance between control base and treatment)” value was 74.1. Moreover, the “Adhesion Δ (difference in relative biofilm abundance between control base and treatment)” value in test [2] (dosage 0.01%) came to 63.5. Besides, the “Formation Δ (difference in relative biofilm abundance between control base and treatment)” value in test [3] (setting [4]) is given as 89.1.

On to `Cc1ccc(C(C)C)c(O)c1` [THYMOL, Thymol], for which the inhibition at 0.1 % in test [1] (setting [7]) worked out at 72%; in test [2] (dosage 0.1%), 5.7%; in test [3] (setting [7]) it was 86.7%.

With `CC/C=C\CCOC(=O)CCCCC` [cis-3-hexenylhexanoate], the “Disruption Δ (difference in relative biofilm abundance between control base and treatment)” value in test [1] (setting [5]) was 75.3. Moreover, in test [2] (setting [6]), the “Adhesion Δ (difference in relative biofilm abundance between control base and treatment)” value was 9.1. Also, the “Formation Δ (difference in relative biofilm abundance between control base and treatment)” value in test [3] (setting [5]) was found to be 58.1.

Regarding `CCCCCCCCCCC(=O)O` [undecanoic acid, Undecanoic acid], the inhibition at 10000 µM in test [1] (setting [5]) was determined as 89.1%; in test [2] (setting [6]), 98.8%; in test [3] (setting [5]), 87.5%.

As to Butanol, the “Disruption Δ (difference in relative biofilm abundance between control base and treatment)” value in test [1] was 59.5. In addition, the “Adhesion Δ (difference in relative biofilm abundance between control base and treatment)” value in test [2] (dosage 0.1%) is reported as 56.8. Further, the “Formation Δ (difference in relative biofilm abundance between control base and treatment)” value in test [3] amounted to 83.5.
